Legend:
ΔF508-CFTR [1] = biological target: T1, ΔF508-CFTR (Homo sapiens, UniProt P13569, DEL508-508); assay: CFTR cell surface levels using HRP-tagged ΔF508-CFTR expressing CFBE cells, in the presence of a co-corrector; assay type: cell-based; conditions: HRP-tagged ΔF508-CFTR expressing CFBE cells, in the presence of 3 μM co-corrector; for EC50: read-out: EC50
T1 construct: host or cells: CFBE41o-, doxycycline-inducible
How it was run: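 Cells were seeded with 0.5 μg/mL doxycycline and held 68 h at 37 °C. Test compounds plus 3 μM co-corrector (final 0.1% DMSO) were then added for 20 h at 33 °C. Washed cells received HRP substrate, and luminescence was normalized between DMSO and 3 μM co-corrector controls.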

ΔF508-CFTR [2] = biological target: T1, ΔF508-CFTR; assay: CFTR cell surface levels using HRP-tagged ΔF508-CFTR expressing CFBE cells, intrinsic corrector capacity; assay type: cell-based; conditions: HRP-tagged ΔF508-CFTR CFBE41o- cells, compounds alone (intrinsic corrector capacity), 20 hours at 33° C.; for % Activation: positive control 3 μM corrector; for EC50: read-out: EC50
How it was run: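 Here the cells express ΔF508-CFTR with horseradish peroxidase inserted in extracellular loop 4, so only rescued channel at the surface gives luminescent signal. Compounds act on their own, 20 h at the reduced temperature of 33 °C; values are percent activity relative to DMSO and a 3 μM corrector.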

T1 sequence (P13569 with tags, fused parts or gaps DEL508-508): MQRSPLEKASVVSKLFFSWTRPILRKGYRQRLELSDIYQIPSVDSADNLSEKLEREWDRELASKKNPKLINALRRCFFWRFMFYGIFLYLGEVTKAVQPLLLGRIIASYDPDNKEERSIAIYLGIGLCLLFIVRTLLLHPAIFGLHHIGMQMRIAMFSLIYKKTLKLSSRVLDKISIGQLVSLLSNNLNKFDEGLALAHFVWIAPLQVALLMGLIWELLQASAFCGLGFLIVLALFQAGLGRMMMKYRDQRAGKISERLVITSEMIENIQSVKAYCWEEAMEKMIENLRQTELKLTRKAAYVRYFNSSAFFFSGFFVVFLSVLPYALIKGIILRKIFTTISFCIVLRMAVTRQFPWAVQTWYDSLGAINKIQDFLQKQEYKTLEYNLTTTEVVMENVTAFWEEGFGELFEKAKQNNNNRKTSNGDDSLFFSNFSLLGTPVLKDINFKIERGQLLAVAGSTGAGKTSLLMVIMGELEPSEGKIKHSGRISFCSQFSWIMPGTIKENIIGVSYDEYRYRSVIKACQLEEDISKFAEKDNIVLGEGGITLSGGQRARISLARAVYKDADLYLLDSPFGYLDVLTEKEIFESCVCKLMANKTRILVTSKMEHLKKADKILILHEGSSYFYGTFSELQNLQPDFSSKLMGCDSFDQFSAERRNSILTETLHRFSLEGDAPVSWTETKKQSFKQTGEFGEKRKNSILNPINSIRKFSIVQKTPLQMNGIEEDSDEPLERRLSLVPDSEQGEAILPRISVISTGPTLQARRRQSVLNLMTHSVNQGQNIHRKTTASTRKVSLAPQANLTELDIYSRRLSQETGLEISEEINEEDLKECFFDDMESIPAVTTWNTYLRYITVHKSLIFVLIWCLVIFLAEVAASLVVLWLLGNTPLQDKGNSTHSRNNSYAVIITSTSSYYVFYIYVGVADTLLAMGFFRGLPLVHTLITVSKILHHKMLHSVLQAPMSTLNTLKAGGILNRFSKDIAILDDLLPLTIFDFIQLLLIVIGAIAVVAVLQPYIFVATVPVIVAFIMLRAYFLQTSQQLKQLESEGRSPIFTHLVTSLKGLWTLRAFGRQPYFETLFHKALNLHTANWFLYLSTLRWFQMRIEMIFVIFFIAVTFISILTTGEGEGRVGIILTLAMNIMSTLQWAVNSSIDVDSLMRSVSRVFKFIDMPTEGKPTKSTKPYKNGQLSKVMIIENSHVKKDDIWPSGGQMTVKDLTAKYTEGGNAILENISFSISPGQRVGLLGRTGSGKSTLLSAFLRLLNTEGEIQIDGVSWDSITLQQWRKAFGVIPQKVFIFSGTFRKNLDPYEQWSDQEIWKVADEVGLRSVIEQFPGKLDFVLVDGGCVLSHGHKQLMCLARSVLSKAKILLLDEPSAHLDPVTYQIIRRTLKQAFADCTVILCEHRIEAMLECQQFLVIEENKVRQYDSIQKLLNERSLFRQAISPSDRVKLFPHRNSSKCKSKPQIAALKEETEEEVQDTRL

Compound: Cc1nn(-c2ccccc2)c2nc(C(=O)O)cc(-c3ccc(N4CCOCC4)c(Br)c3)c12 [compound 66, 4-[3-bromo-4-(morpholin-4-yl)phenyl]-3-methyl-1-phenyl-1H-pyrazolo[3,4-b]pyridine-6-carboxylic acid]
- % Activation (ΔF508-CFTR [1]): 131.3%
- EC50 (ΔF508-CFTR [1]): > 10000 nM
- % Activation (ΔF508-CFTR [2]): 13.06%
- EC50 (ΔF508-CFTR [2]): > 10000 nM

Compound: CC(C)c1nn(C2CCCC2)c2nc(C(=O)O)cc(-c3cnc(N(C)C)nc3)c12 [compound 67, 1-cyclopentyl-4-[2-(dimethylamino)pyrimidin-5-yl]-3-(propan-2-yl)-1H-pyrazolo[3,4-b]pyridine-6-carboxylic acid]
- % Activation (ΔF508-CFTR [1]): 280.35%
- EC50 (ΔF508-CFTR [1]): 1260 nM
- % Activation (ΔF508-CFTR [2]): 117.6%
- EC50 (ΔF508-CFTR [2]): 1590 nM

Compound: CC(C)c1nn(C2CCCOC2)c2nc(C(=O)O)cc(-c3ccc(N4CCOCC4)cc3)c12 (centres unmarked) [compound 68, 4-[4-(morpholin-4-yl)phenyl]-1-(oxan-3-yl)-3-(propan-2-yl)-1H-pyrazolo[3,4-b]pyridine-6-carboxylic acid]
- % Activation (ΔF508-CFTR [1]): 274.9%
- EC50 (ΔF508-CFTR [1]): 1390 nM
- % Activation (ΔF508-CFTR [2]): 106.65%
- EC50 (ΔF508-CFTR [2]): 1740 nM

Compound: CC(C)c1nn(C2CCCC2)c2nc(C(=O)O)cc(-c3ccc(N4CCOCC4)cc3)c12 [compound 69, 1-cyclopentyl-4-[4-(morpholin-4-yl)phenyl]-3-(propan-2-yl)-1H-pyrazolo[3,4-b]pyridine-6-carboxylic acid]
- % Activation (ΔF508-CFTR [1]): 366.8%
- EC50 (ΔF508-CFTR [1]): 993 nM
- % Activation (ΔF508-CFTR [2]): 150.25%
- EC50 (ΔF508-CFTR [2]): 970 nM

Compound: COC(=O)N1CCN(c2ccc(-c3cc(C(=O)O)nc4c3c(C)nn4-c3ccccc3)cc2)CC1 [compound 70, 4-{4-[4-(methoxycarbonyl)piperazin-1-yl]phenyl}-3-methyl-1-phenyl-1H-pyrazolo[3,4-b]pyridine-6-carboxylic acid]
- % Activation (ΔF508-CFTR [1]): 355.6%
- EC50 (ΔF508-CFTR [1]): 649 nM
- % Activation (ΔF508-CFTR [2]): 160.8%
- EC50 (ΔF508-CFTR [2]): 910 nM

Compound: CC(=O)N1CCC(n2nc(C(C)C)c3c(-c4ccc(N5CCOCC5)cc4)cc(C(=O)O)nc32)CC1 [compound 71, 1-(1-acetylpiperidin-4-yl)-4-[4-(morpholin-4-yl)phenyl]-3-(propan-2-yl)-1H-pyrazolo[3,4-b]pyridine-6-carboxylic acid]
- % Activation (ΔF508-CFTR [1]): 126.8%
- EC50 (ΔF508-CFTR [1]): > 10000 nM
- % Activation (ΔF508-CFTR [2]): 17.23%
- EC50 (ΔF508-CFTR [2]): > 10000 nM

Compound: Cc1nn(-c2ccccc2)c2nc(C(=O)O)cc(-c3ccc(N4CC(N(C)C)C4)cc3)c12 [compound 72]
- % Activation (ΔF508-CFTR [1]): 308.1%
- EC50 (ΔF508-CFTR [1]): 3340 nM
- % Activation (ΔF508-CFTR [2]): 91.87%
- EC50 (ΔF508-CFTR [2]): 2250 nM

Compound: Cc1nn(-c2ccccc2)c2nc(C(=O)O)cc(-c3ccc(N4CC(C)(C)C4)cc3)c12 [compound 73, 4-[4-(3,3-dimethylazetidin-1-yl)phenyl]-3-methyl-1-phenyl-1H-pyrazolo[3,4-b]pyridine-6-carboxylic acid]
- % Activation (ΔF508-CFTR [1]): 303.9%
- EC50 (ΔF508-CFTR [1]): 3250 nM
- % Activation (ΔF508-CFTR [2]): 110.1%
- EC50 (ΔF508-CFTR [2]): 3170 nM

Compound: Cc1nn(C2CCCCC2)c2nc(C(=O)O)cc(-c3ccc(N4CCOCC4)nc3)c12 [compound 74, 1-cyclohexyl-3-methyl-4-[6-(morpholin-4-yl)pyridin-3-yl]-1H-pyrazolo[3,4-b]pyridine-6-carboxylic acid]
- % Activation (ΔF508-CFTR [1]): 257.2%
- EC50 (ΔF508-CFTR [1]): 1480 nM
- % Activation (ΔF508-CFTR [2]): 116.7%
- EC50 (ΔF508-CFTR [2]): 2560 nM

Compound: Cc1nn(C2CCCCC2)c2nc(C(=O)O)cc(-c3cnc(N(C)C)nc3)c12 [compound 75, 1-cyclohexyl-4-[2-(dimethylamino)pyrimidin-5-yl]-3-methyl-1H-pyrazolo[3,4-b]pyridine-6-carboxylic acid]
- % Activation (ΔF508-CFTR [1]): 254%
- EC50 (ΔF508-CFTR [1]): 1150 nM
- % Activation (ΔF508-CFTR [2]): 117.1%
- EC50 (ΔF508-CFTR [2]): 3130 nM

Compound: CC(C)(C)OC(=O)N1CCCC1c1nn(-c2ccccc2)c2nc(C(=O)O)cc(-c3ccc(N4CCOCC4)cc3)c12 (centres unmarked) [compound 76]
- % Activation (ΔF508-CFTR [1]): 244.2%
- EC50 (ΔF508-CFTR [1]): 430 nM
- % Activation (ΔF508-CFTR [2]): 117.9%
- EC50 (ΔF508-CFTR [2]): 835 nM

Reference: patent publication US9796711B2, “Substituted pyrazolo[3,4-b]pyridin-6-carboxylic acids and method of use” (AbbVie S.àr.l., priority 2015, dated 2017)
